Assay results as given in ChEMBL document CHEMBL3217579, “Prodrug ionic liquids: functionalizing neutral active pharmaceutical ingredients to take advantage of the ionic liquid form” (Medchemcomm, 2013).

Legend:
[1] = Prodrug conversion in PBS buffer assessed as acetominophen formation at pH 7.4 after 210 mins; format: physicochemical; conditions: pH 7.4, 3.5 h
[2] = Prodrug conversion in simulated intestinal fluid assessed as acetominophen formation at pH 6.8 after 210 mins; format: ADME; conditions: simulated gi fluid, pH 6.8, 3.5 h
[3] = Prodrug conversion in simulated gastric fluid assessed as acetominophen formation at pH 1.2 after 210 mins; format: ADME, Stomach; conditions: simulated gi fluid, pH 1.2, 3.5 h

Drug metabolism [1]: Active
Drug metabolism [2]: Active
Drug metabolism [3]: Active
SMILES: CC(=O)Nc1ccc(OC(=O)Cn2cc[n+](C)c2)cc1.[Cl-]
